Test results as given in PMC6949951, “α-Glucosidase Inhibition and Molecular Docking Studies of Natural Brominated Metabolites from Marine Macro Brown Alga Dictyopteris hoytii” (Marine Drugs, 2019).
Read-outs that look alike come from different tables or passages of the source.

Target: α-Glucosidase (E.C.3.2.1.20) enzyme (Saccharomyces cerevisiae) (Saccharomyces cerevisiae, UniProt P53341)
Test: biochemical
Format: biochemical
Procedure: α-Glucosidase (E.C.3.2.1.20) enzyme (Saccharomyces cerevisiae) inhibition activity was carried out by using previously described method. The enzyme (0.2 μ/mL) solution in phosphate buffered saline (PBS) (0.1 M, pH 6.8) with different concentrations of tested compounds (1, 0.5, 0.25, 0.125, 0.0625 and 0.0312 mM) at 37 °C were incubated for 15 min. After incubation, 0.7 mM p-nitrophenyl-α-D-glucopyranoside (a chromogenic substrate) was added and the change in absorbance was recorded at 400 nm for 30 min by microplate spectrophotometer (xMark™, BIO-RAD, California, LA, United States) per production of p-nitrophenyl. Al the isolated compounds were dissolve in DMSO (7.5% final) along with control. […] The IC50 values were calculated by using different concentrations of tested compounds. The results were processed by MS-Excel and Ez-fit software programs. The % inhibition was calculated by using the following formula:% Inhibition = 100 −(OD test well/OD control) × 100.

[1] = tested up to 1.0 mM, PBS pH 6.8, 37 °C, NA = not active, read-out: α-Glucosidase inhibitory activity IC50
[2] = IC50 (Table 2, repeated beside docking results), S. cerevisiae α-glucosidase
[3] = α-Glucosidase inhibitory activity IC50, tested up to 1.0 mM, PBS pH 6.8, 37 °C, NA = not active
[4] = S. cerevisiae α-glucosidase, read-out: IC50 (Table 2, repeated beside docking results)

α-Glucosidase (E.C.3.2.1.20) enzyme (Saccharomyces cerevisiae), sequence (P53341 whole entry): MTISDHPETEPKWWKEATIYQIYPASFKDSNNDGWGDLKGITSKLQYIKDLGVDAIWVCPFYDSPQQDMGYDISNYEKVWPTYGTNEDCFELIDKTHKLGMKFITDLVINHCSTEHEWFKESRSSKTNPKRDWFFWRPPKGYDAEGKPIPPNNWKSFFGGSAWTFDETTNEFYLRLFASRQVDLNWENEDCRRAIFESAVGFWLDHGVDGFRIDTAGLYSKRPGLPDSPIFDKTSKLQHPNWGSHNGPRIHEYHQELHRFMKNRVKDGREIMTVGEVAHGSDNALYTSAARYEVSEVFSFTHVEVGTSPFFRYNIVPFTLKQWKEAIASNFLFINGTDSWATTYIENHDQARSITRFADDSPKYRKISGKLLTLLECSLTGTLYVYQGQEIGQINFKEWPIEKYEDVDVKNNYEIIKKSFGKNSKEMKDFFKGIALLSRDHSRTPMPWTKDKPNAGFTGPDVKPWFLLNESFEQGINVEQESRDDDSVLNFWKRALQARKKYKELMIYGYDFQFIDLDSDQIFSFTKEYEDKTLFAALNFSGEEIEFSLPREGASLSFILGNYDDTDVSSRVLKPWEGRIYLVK

| IC50 [1] | Compound | IC50 [3] | also measured |
| --- | --- | --- | --- |
| 30.5 ± 0.41 µM | CCCCCCCCCCCCCCCCCCC=CCCCCCCCC(=O)O [Compound 7, n-Octacos-9-enoic acid] |  |  |
|  | CCCCCCCCC=CCCCCCCCCCC(=O)O [Compound 8, 11-Eicosenoic acid] | 480 µM | IC50 [2]: 480 µM |
|  | CCCCCCCCCCCCCCCC(=O)OC [Compound 4, n-Hexadecanoic acid, methyl ester] |  | α-glucosidase inhibition in words (in vitro): inactive |
|  | CCOC(=O)c1ccc(C(=O)OCC)c(Br)c1 [Compound 2, Diethyl 2-bromobenzene 1,4-dioate] | ~234 µM | IC50: 234 µM |
| 659.8 ± 2.15 µM | CCCCCCCCCCCCCCCCCCCCCCCCCC(=O)O [Compound 6, Cerotic acid] |  | IC50 [4]: 660 µM |
|  | C/C=C(\CC[C@@H](C)[C@H]1CC[C@H]2[C@@H]3CC=C4C[C@@H](O)CC[C@]4(C)[C@H]3CC[C@]12C)C(C)C [Compound 3, Fucosterol] | 289 ± 4.91 µM | IC50 [2]: 289 µM |

| Compound | IC50 [1] | IC50 [3] | also measured |
| --- | --- | --- | --- |
| Ethyl methyl 2-bromobenzene 1,4-dioate [Compound 1] | 522 ± 0.51 µM |  | IC50 [4]: 522 µM |
